The series in a line: physchem.

Converted amounts (≈) assume the structure as drawn.

As a reminder, the solubility is how much of the substance goes into solution per volume. A lower solubility goes with a poorly soluble substance. In turn, `NCC(=O)Nc1ccc(-n2nc(C(F)(F)F)cc2-c2ccc3c(ccc4ccccc43)c2)cc1` [AR-12] displayed a solubility (USP biphthalate buffer, pH 3.5, aqueous buffer) of 0.18 µg/mL (≈ 0.391 µM); a solubility (USP biphthalate buffer, pH 5, aqueous buffer) of 0.07 µg/mL (≈ 0.152 µM); a solubility (USP chloride buffer, pH 1.2, simulated gastric fluid) of 65.3 µg/mL (≈ 142 µM); a solubility (USP phosphate buffer, pH 7.4, aqueous buffer) of 0.06 µg/mL (≈ 0.13 µM).

(Values after patent US10039833B2, “Drug delivery system to increase bioavailability” (OHIO STATE INNOVATION FOUNDATION, priority 2013, dated 2018).)
